Results taken from paper PMC7222207, “Characterization of a CholesteroNitrone (ISQ-201), a Novel Drug Candidate for the Treatment of Ischemic Stroke” (Antioxidants, 2020).

How the values were obtained:
[1] = system: transient forebrain ischemia; assay: Global cerebral ischemia (4VO), neurological deficit score (NDS); assay type: in vivo, male Wistar rats; conditions: evaluated at 5 days
Experimental: Transient forebrain ischemia was induced in adult male Wistar rats (10–12 weeks, Charles River) by the standard four-vessel occlusion model (4VO) described previously. Briefly, both vertebral arteries were irreversibly occluded by electrocoagulation under anesthesia, with a mixture of atropine, ketamine, and diazepam (0.25, 62.5, and 5 mg/kg, respectively) delivered through intraperitoneal injection. After 24 h, ischemia was induced by carotid occlusion with atraumatic clips, for 15 min, and then the clips were removed from the carotid arteries to allow reperfusion. Body temperature was maintained at 37 °C during the surgical procedure. The animals were studied after 5 days of reperfusion (R5d) after which they were sacrificed. Sham control animals were prepared in the same way, without carotid occlusion. We performed a power analysis (http://www.biomath.info/power/ttest.htm) to determine the sample size. Significance level and statistical power were set at 0.05 and 0.8 (80%), respectively, which afforded a sample size of <6 subjects per group. […]
Neurological deficits in rats subjected to global cerebral ischemia were blindly evaluated after 5 days of reperfusion (R5d). […]
In order to quantify potential functional impairments, the general state of the animals was assessed. […]

[2] = system: transient forebrain ischemia; assay: Long-term behavioral tests in Y maze (exploration, spatial recognition, spatial memory); assay type: in vivo, male Wistar rats; conditions: 0.05 mg/kg iv at reperfusion onset, 11 weeks after ischemic reperfusion
Experimental: For the long-term studies, animals were subjected to behavioral tests, in order to assess their spontaneous spatial alternation and spatial memory skills, as markers of neurological damage present in longer periods, after the surgical procedure. According to previous literature, we selected the Y maze, in which both the exploration activity (spatial recognition) and spatial memory were evaluated.
For the exploration activity and spatial recognition, control animals and ischemic animals treated with the vehicle or ISQ-201 were placed in the center of the maze and let to explore for 8 min. The total number of arms that the animal entered indistinctly (number of arm entries) and the times that the animal explored consecutively—the three different arms of the maze (number of alternations or triads)—were registered by an observer blind to the treatment.
For the assessment of spatial memory, the control animals and ischemic animals treated with the vehicle or ISQ-201 were placed into one of the arms of the Y maze (start arm) and were allowed to explore the maze with one of the arms closed for 10 min (training trial). After 1 h, the rats were returned to the Y maze by placing them in the start arm and allowing them to freely explore all three arms of the maze for 3 min. The arm of the first choice of entry, the new or old, was registered manually by an observer blind to the treatment.

[3] = system: transient middle cerebral artery occlusion; assay: Transient focal cerebral ischemia (tMCAO), infarct size by TTC stain; assay type: in vivo, male C57BL/6 mice; conditions: mice, 48 h after tMCAO
[4] = system: transient middle cerebral artery occlusion; assay: Transient focal cerebral ischemia (tMCAO), grip strength test; assay type: in vivo, male C57BL/6 mice; conditions: mice, 0.05 mg/kg or 0.1 mg/kg ip at onset of reperfusion, 24 and 48 h after treatment
Experimental: Transient occlusion of the distal branch of the middle cerebral artery (tMCAO) was induced in male C57BL/6 mice (9–11 weeks old, Charles River), as described previously. Mice were anesthetized with 4% isoflurane for induction and 1.5–2% isoflurane for maintenance (in 79% N2/21% O2). After drilling a small hole on the temporal bone at the level of the distal portion of the middle cerebral artery (MCA), the artery was compressed for 60 min, with a 30-G needle by using a micromanipulator. Body temperature was maintained between 36.5–37.5 °C and cerebral blood flow was monitored using laser-Doppler flowmetry to confirm MCA occlusion. Buprenorphine (0.05–0.1 mg/kg) was administered subcutaneously immediately before the procedure. A total of 33 mice were subjected to tMCAO, according to the study design. A power analysis was performed to determine the sample size (significance level set at 0.05, and the power set at 0.8 (80%)), which identified the need for 8 mice to be included in each experimental group. […]
Neurobehavioral studies were performed to evaluate ischemic outcomes and monitor motor function after focal ischemia. […] A total of six trials were conducted for each test and the strength value (expressed in grams) was calculated as the mean of all six trials.

[5] = system: cerebral ischemia; parameters: method as in PMID 26241908; conditions: 0.05 and 0.1 mg/kg intraperitoneal at onset of reperfusion; cited from earlier work

With `CC(C)[C@H]1CC[C@H]2[C@@H]3CCC4=C/C(=[N+](\C)[O-])CC[C@]4(C)[C@H]3CC[C@]12C` [ISQ-201] the “neurological deficit score (NDS) vs vehicle” value ([1]; 0.05 mg/kg iv given after 48 h of reperfusion) was “could not improve”, the “neurological deficit score (NDS) vs vehicle” value ([1]; 0.05 mg/kg iv given between 0 and 6 h of post-reperfusion) was “improvement” and the “spatial memory (new arm as first choice), Y maze” value [2] was “recovery of values similar to the control group”. The “exploration activity (number of arm entries), Y maze” value ([2]; vs control group) was “no significant differences with the control group”, the “spatial recognition (number of alternations or triads), Y maze” value ([2]; vs control group) was “no significant differences” and the “infarct area in the brain vs vehicle” value ([3]; 0.05 mg/kg ip at onset of reperfusion) was “did not change”. For the same compound, the “reduction in lesion size with respect to vehicle-treated group” value ([3]; 0.1 mg/kg ip at onset of reperfusion) was 21%, the “motor deficit (grip strength) vs vehicle” value [4] was “significant decrease” and the “neuronal death, apoptosis and neurodeficit score” value [5] was “significant decreases”.
